Reference: patent US20220040129A1, “TREATMENT OF HYPERAMMONEMIA IN PATIENTS WITH RENAL INSUFFICIENCY” (RECORDATI S.p.A., priority 2019, published 2022)
Like-named read-outs stand apart in the source and are kept apart here.

Experiment: CARIV-A-001 Part A: single ascending IV doses over 20 minutes in healthy subjects
Type: in vivo, human
Details: for CL renal / AUC(0-t) / AUC(0-inf) / clearance / Cmax / half-life / Vd: both sexes, human, iv; for CL renal: plasma and urine; for AUC(0-t) / AUC(0-inf) / clearance / Cmax / half-life / Vd: plasma
Description: This study was conducted in healthy male or female volunteers, at a single site to assess the safety and PK profile of an IV formulation of Carbaglu and to determine the absolute bioavailability of the current marketed oral formulation of Carbaglu.
The levels of CGA in plasma and urine were analysed using a fully validated method, which included LC-MS/MS analysis. The PK data were analysed based on a non-compartmental model. A model-based approach was implemented for the characterization of the PK properties of the IV formulation in order to estimate the level of PK exposure after different doses administered with different duration of infusion. […] The PK parameters were determined using SAS (version 9.3), and modelling of the PK data was performed using NONMEM (version 7.3, ICON Solutions). PART A: Mono-Centre, Randomized, Successive Groups, Double-Blind, Placebo-Controlled Study in Healthy Male and Female Subjects
Each cohort included a minimum of 3 and maximum of 5 subjects of each of the two genders.
Three loading doses of CGA over 20 minutes were tested by IV administration, 3.5 mg/kg, 5.0 mg/kg and 7.5 mg/kg. For each of these three doses, 6 subjects were administered CGA and 2 received the placebo.
Plasma concentrations of CGA were measured at 18 timepoints, including a sample preceding the start of the administration, and then between 10 minutes and 48 hours following the initiation of the IV infusion.
The PK analysis of Carbaglu was conducted by using standard non-compartmental approach.

## NC(=O)N[C@@H](CCC(=O)O)C(=O)O [carglumic acid, N-carbamoyl-L-glutamic acid]
IV administration over 20 minutes, healthy volunteers
  Plasma levels observed, up to: up to 26,500 ng/mL
IV doses in the range of 3.5 mg/kg to 7.5 mg/kg
  Dose dependence of AUCinf, AUClast and Cmax: increase linearly
IV over 20 minutes, stable across the doses evaluated
  Percent of dose excreted in urine: ~75%
Part A
  Concentration up to which linearity of PK was shown: up to 26.5 μg/mL
After IV administration
  Dose excreted in the urine as parent compound over 24 hours: 75 % of the dose
3.5 mg/kg, IV over 20 minutes, 3.5 mg/kg, read-out: Renal Clearance (RCl), Mean
  CL renal: 4.33 mL/min/kg
3.5 mg/kg, IV over 20 minutes, 3.5 mg/kg, read-out: Renal Clearance (RCl), Median
  CL renal: 4.17 mL/min/kg
3.5 mg/kg, IV over 20 minutes, 3.5 mg/kg, read-out: Renal Clearance (RCl), Range
  CL renal: 3.33 to 5 mL/min/kg
5 mg/kg, IV over 20 minutes, 5.0 mg/kg, read-out: Renal Clearance (RCl), Mean
  CL renal: 3.83 mL/min/kg
5 mg/kg, IV over 20 minutes, 5.0 mg/kg, read-out: Renal Clearance (RCl), Median
  CL renal: 3.67 mL/min/kg
5 mg/kg, IV over 20 minutes, 5.0 mg/kg, read-out: Renal Clearance (RCl), Range
  CL renal: 3.17 to 5.17 mL/min/kg
7.5 mg/kg, IV over 20 minutes, 7.5 mg/kg, read-out: Renal Clearance (RCl), Mean
  CL renal: 4.33 mL/min/kg
7.5 mg/kg, IV over 20 minutes, 7.5 mg/kg, read-out: Renal Clearance (RCl), Median
  CL renal: 4.17 mL/min/kg
7.5 mg/kg, IV over 20 minutes, 7.5 mg/kg, read-out: Renal Clearance (RCl), Range
  CL renal: 3.5 to 5.33 mL/min/kg
IV over 20 minutes, stable across doses, read-out: Renal clearance (converted)
  CL renal: ~4.17 mL/min/kg
After IV administration, read-out: Renal clearance, median
  CL renal: 265 mL/min
After IV administration, read-out: Renal clearance, range
  CL renal: 183 to 467 mL/min
3.5 mg/kg, IV over 20 minutes, 3.5 mg/kg, read-out: AUC24h, Mean
  AUC(0-t): 9850 ng·h/mL
3.5 mg/kg, IV over 20 minutes, 3.5 mg/kg, read-out: AUC24h, Median
  AUC(0-t): 9690 ng·h/mL
3.5 mg/kg, IV over 20 minutes, 3.5 mg/kg, read-out: AUC24h, Range
  AUC(0-t): 8990 to 11000 ng·h/mL
3.5 mg/kg, IV over 20 minutes, 3.5 mg/kg, read-out: AUCinf, Mean
  AUC(0-inf): 11000 ng·h/mL
3.5 mg/kg, IV over 20 minutes, 3.5 mg/kg, read-out: AUCinf, Median
  AUC(0-inf): 10900 ng·h/mL
3.5 mg/kg, IV over 20 minutes, 3.5 mg/kg, read-out: AUCinf, Range
  AUC(0-inf): 9740 to 12500 ng·h/mL
3.5 mg/kg, IV over 20 minutes, 3.5 mg/kg, read-out: AUClast-timepoint, Mean
  AUC(0-t): 10200 ng·h/mL
3.5 mg/kg, IV over 20 minutes, 3.5 mg/kg, read-out: AUClast-timepoint, Median
  AUC(0-t): 10100 ng·h/mL
3.5 mg/kg, IV over 20 minutes, 3.5 mg/kg, read-out: AUClast-timepoint, Range
  AUC(0-t): 8990 to 11500 ng·h/mL
3.5 mg/kg, IV over 20 minutes, 3.5 mg/kg, read-out: Clearance (Cl), Mean
  clearance: 5.33 mL/min/kg
3.5 mg/kg, IV over 20 minutes, 3.5 mg/kg, read-out: Clearance (Cl), Median
  clearance: 5.33 mL/min/kg
3.5 mg/kg, IV over 20 minutes, 3.5 mg/kg, read-out: Clearance (Cl), Range
  clearance: 4.67 to 6 mL/min/kg
3.5 mg/kg, IV over 20 minutes, 3.5 mg/kg, read-out: Cmax, Mean
  Cmax: 11400 ng/mL
3.5 mg/kg, IV over 20 minutes, 3.5 mg/kg, read-out: Cmax, Median
  Cmax: 11400 ng/mL
3.5 mg/kg, IV over 20 minutes, 3.5 mg/kg, read-out: Cmax, Range
  Cmax: 10700 to 12300 ng/mL
3.5 mg/kg, IV over 20 minutes, 3.5 mg/kg, read-out: T1/2, Mean
  half-life: 20.6 h
3.5 mg/kg, IV over 20 minutes, 3.5 mg/kg, read-out: T1/2, Median
  half-life: 21.1 h
3.5 mg/kg, IV over 20 minutes, 3.5 mg/kg, read-out: T1/2, Range
  half-life: 6.6 to 36.1 h
3.5 mg/kg, IV over 20 minutes, 3.5 mg/kg, read-out: Volume of Distribution (Vd), Mean
  Vd: 9.28 L/kg
3.5 mg/kg, IV over 20 minutes, 3.5 mg/kg, read-out: Volume of Distribution (Vd), Median
  Vd: 8.75 L/kg
3.5 mg/kg, IV over 20 minutes, 3.5 mg/kg, read-out: Volume of Distribution (Vd), Range
  Vd: 3.26 to 15.5 L/kg
5 mg/kg, IV over 20 minutes, 5.0 mg/kg, read-out: AUC24h, Mean
  AUC(0-t): 14800 ng·h/mL
5 mg/kg, IV over 20 minutes, 5.0 mg/kg, read-out: AUC24h, Median
  AUC(0-t): 14900 ng·h/mL
5 mg/kg, IV over 20 minutes, 5.0 mg/kg, read-out: AUC24h, Range
  AUC(0-t): 11100 to 19300 ng·h/mL
5 mg/kg, IV over 20 minutes, 5.0 mg/kg, read-out: AUCinf, Mean
  AUC(0-inf): 16100 ng·h/mL
5 mg/kg, IV over 20 minutes, 5.0 mg/kg, read-out: AUCinf, Median
  AUC(0-inf): 16600 ng·h/mL
5 mg/kg, IV over 20 minutes, 5.0 mg/kg, read-out: AUCinf, Range
  AUC(0-inf): 12300 to 20000 ng·h/mL
5 mg/kg, IV over 20 minutes, 5.0 mg/kg, read-out: AUClast-timepoint, Mean
  AUC(0-t): 15300 ng·h/mL
5 mg/kg, IV over 20 minutes, 5.0 mg/kg, read-out: AUClast-timepoint, Median
  AUC(0-t): 15600 ng·h/mL
5 mg/kg, IV over 20 minutes, 5.0 mg/kg, read-out: AUClast-timepoint, Range
  AUC(0-t): 11500 to 19300 ng·h/mL
5 mg/kg, IV over 20 minutes, 5.0 mg/kg, read-out: Clearance (Cl), Mean
  clearance: 5.33 mL/min/kg
5 mg/kg, IV over 20 minutes, 5.0 mg/kg, read-out: Clearance (Cl), Median
  clearance: 5 mL/min/kg
5 mg/kg, IV over 20 minutes, 5.0 mg/kg, read-out: Clearance (Cl), Range
  clearance: 4.17 to 6.83 mL/min/kg
5 mg/kg, IV over 20 minutes, 5.0 mg/kg, read-out: Cmax, Mean
  Cmax: 15000 ng/mL
5 mg/kg, IV over 20 minutes, 5.0 mg/kg, read-out: Cmax, Median
  Cmax: 15600 ng/mL
5 mg/kg, IV over 20 minutes, 5.0 mg/kg, read-out: Cmax, Range
  Cmax: 8420 to 19100 ng/mL
5 mg/kg, IV over 20 minutes, 5.0 mg/kg, read-out: T1/2, Mean
  half-life: 21.6 h
5 mg/kg, IV over 20 minutes, 5.0 mg/kg, read-out: T1/2, Median
  half-life: 21.4 h
5 mg/kg, IV over 20 minutes, 5.0 mg/kg, read-out: T1/2, Range
  half-life: 12.8 to 29.3 h
5 mg/kg, IV over 20 minutes, 5.0 mg/kg, read-out: Volume of Distribution (Vd), Mean
  Vd: 9.94 L/kg
5 mg/kg, IV over 20 minutes, 5.0 mg/kg, read-out: Volume of Distribution (Vd), Median
  Vd: 10.2 L/kg
